Values of other authors in patent US12377118B2, “Nanoparticle constructs for systemic co-delivery of anti-tumor agents” (CASE WESTERN RESERVE UNIVERSITY, priority 2019, dated 2025).

Test system: 4T1 orthotopic mammary tumor
Settings: i.t.

Nc1nc2c(ncn2[C@@H]2O[C@@H]3COP(=O)(O)O[C@H]4[C@@H](O)[C@H](n5cnc6c(=O)[nH]c(N)nc65)O[C@@H]4COP(=O)(O)O[C@H]3[C@H]2O)c(=O)[nH]1 [free cdGMP, cyclic diguanylate monophosphate]
dose needed to regress early 4T1 primary tumors: up to 50 μg
